Among the data in patent publication US20240360126A1, “PYRAZOLO[3,4-B]PYRIDINE COMPOUNDS FOR THE TREATMENT OF AUTOIMMUNE DISEASE” (Hoffmann-La Roche Inc., priority 2021, published 2024) are IC50 values, retold here.

SMILES strings stand for the structures.

In the assay the target is T1, TLR9 (Homo sapiens, UniProt Q9NR96).
T1 sequence (Q9NR96 26-1032): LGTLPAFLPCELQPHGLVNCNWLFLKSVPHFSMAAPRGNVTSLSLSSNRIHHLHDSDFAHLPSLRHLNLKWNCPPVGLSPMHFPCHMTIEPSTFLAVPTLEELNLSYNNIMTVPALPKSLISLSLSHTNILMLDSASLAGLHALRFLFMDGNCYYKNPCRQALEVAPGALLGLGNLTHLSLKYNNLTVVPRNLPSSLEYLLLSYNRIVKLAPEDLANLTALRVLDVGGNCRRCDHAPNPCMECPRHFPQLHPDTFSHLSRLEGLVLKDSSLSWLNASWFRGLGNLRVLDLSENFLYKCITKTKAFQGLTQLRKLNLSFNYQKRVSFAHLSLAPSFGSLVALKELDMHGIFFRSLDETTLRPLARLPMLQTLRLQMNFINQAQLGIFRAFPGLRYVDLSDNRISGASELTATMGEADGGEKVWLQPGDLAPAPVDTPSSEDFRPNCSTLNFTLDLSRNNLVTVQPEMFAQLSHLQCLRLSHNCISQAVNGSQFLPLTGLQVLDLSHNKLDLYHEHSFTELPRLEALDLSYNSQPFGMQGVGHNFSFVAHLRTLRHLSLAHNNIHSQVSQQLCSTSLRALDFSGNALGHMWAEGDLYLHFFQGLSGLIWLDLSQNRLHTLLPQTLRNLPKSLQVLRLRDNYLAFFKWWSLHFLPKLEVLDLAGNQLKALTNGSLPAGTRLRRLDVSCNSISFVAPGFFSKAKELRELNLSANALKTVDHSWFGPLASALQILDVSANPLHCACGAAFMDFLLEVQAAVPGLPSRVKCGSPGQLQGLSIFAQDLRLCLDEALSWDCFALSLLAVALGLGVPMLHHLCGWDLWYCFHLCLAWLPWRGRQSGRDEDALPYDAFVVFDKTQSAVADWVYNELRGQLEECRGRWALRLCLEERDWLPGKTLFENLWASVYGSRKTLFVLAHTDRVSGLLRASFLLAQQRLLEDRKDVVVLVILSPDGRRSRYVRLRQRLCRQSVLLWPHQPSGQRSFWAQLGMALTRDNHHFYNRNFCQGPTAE
Kind of assay: HEK293-Blue-hTLR-9 cells assay. It counts as cell-based. Details: host or cells: HEK293 (HEK-Blue hTLR9). Conditions: HEK293-Blue-hTLR9 cells, ODN2006 stimulation, 20 hrs; read-out: HEK/hTLR9 IC50. From the text:
A stable HEK293-Blue-hTLR-9 cell line was purchased from InvivoGen (Cat. #: hkb-htlr9, San Diego, California, USA). These cells were originally designed for studying the stimulation of human TLR9 by monitoring the activation of NF-κB. A SEAP (secreted embryonic alkaline phosphatase) reporter gene was placed under the control of the IFN-β minimal promoter fused to five NF-κB and AP-1-binding sites. The SEAP was induced by activating NF-κB and AP-1 via stimulating HEK-Blue hTLR9 cells with TLR9 ligands. Therefore the reporter expression was declined by TLR9 antagonist under the stimulation of a ligand, such as ODN2006 (Cat. #: tlrl-2006-1, Invivogen, San Diego, California, USA), for incubation of 20 hrs. The cell culture supernatant SEAP reporter activity was determined using QiANTI-Blue™ kit (Cat. #: rep-qbl, Invivogen, San Diego, California, USA) at a wavelength of 640 nm, a detection medium that turns purple or blue in the presence of alkaline phosphatase.
HEK293-Blue-hTLR9 cells were incubated at a density of 250,000-450,000 cells/mL in a volume of 170 μL in a 96-well plate in Dulbecco's Modified Eagle's medium (DMEM) containing 4.5 g/L glucose, 50 U/mL penicillin, […], […], 10% (v/v) heat-inactivated fetal bovine serum with addition of 20 μL test compound in a serial dilution in the presence of final DMSO at 1% and 10 μL of 20 μM ODN2006 in above DMEM, perform incubation under 37° C. in a C02 incubator for 20 hrs. Then 20 μL of the supernatant from each well was incubated with 180 μl. Quanti-blue substrate solution at 37° C. for 2 h and the absorbance was read at 620˜655 nm using a spectrophotometer. The signaling pathway that TLR9 activation leads to downstream NF-κB activation has been widely accepted, and therefore similar reporter assay was modified for evaluating TLR9 antagonist.
Turning to `Cc1cc(N2CCC(c3cnc(N4CCNCC4)cc3C)[C@H](C)C2)c2cnn(C)c2n1` (single isomer, unassigned) [Example 20, 1,6-dimethyl-4-[cis-3-methyl-4-(4-methyl-6-piperazin-1-yl-3-pyridyl)-1-piperidyl]pyrazolo[3,4-b]pyridine], the IC50 turned out to be 220 nM.

Turning to `Cc1cc(N2CCC(c3cnc(N4CCNCC4)cc3C)[C@H](C)C2)c2cnn(C)c2n1` (single isomer, unassigned) [Example 21, 1,6-dimethyl-4-[trans-3-methyl-4-(4-methyl-6-piperazin-1-yl-3-pyridyl)-1-piperidyl]pyrazolo[3,4-b]pyridine], the IC50 turned out to be 372 nM.

As for `Cc1cc(N2CCC(c3ncc(N4CCNCC4)nc3C)[C@H](C)C2)c2cnn(C)c2n1` (single isomer, unassigned) [Example 22, 1,6-dimethyl-4-[cis-3-methyl-4-(3-methyl-5-piperazin-1-yl-pyrazin-2-yl)-1-piperidyl]pyrazolo[3,4-b]pyridine], the IC50 is 315 nM.

With `Cc1cc(N2CCC(c3ncc(N4CCNCC4)nc3C)[C@H](C)C2)c2cnn(C)c2n1` (single isomer, unassigned) [Example 23, 1,6-dimethyl-4-[trans-3-methyl-4-(3-methyl-5-piperazin-1-yl-pyrazin-2-yl)-1-piperidyl]pyrazolo[3,4-b]pyridine], the IC50 was found to be 368 nM.

On to `Cc1cc(N2CCC(c3ncc(N4CCNCC4)cc3C)[C@H](C)C2)c2cnn(C)c2n1` (single isomer, unassigned) [Example 24, 1,6-dimethyl-4-[cis-3-methyl-4-(3-methyl-5-piperazin-1-yl-2-pyridyl)-1-piperidyl]pyrazolo[3,4-b]pyridine], for which the IC50 was 76 nM.

With `Cc1cc(N2CCC(c3ncc(N4CCNCC4)cc3C)[C@H](C)C2)c2cnn(C)c2n1` (single isomer, unassigned) [Example 25, 1,6-dimethyl-4-[trans-3-methyl-4-(3-methyl-5-piperazin-1-yl-2-pyridyl)-1-piperidyl]pyrazolo[3,4-b]pyridine], the IC50 came to 98 nM.

`Cc1cc(N2CCC(c3ccc(N4CCNCC4)cc3)CC2)c2cnn(C)c2n1` [Example 1, 1,6-dimethyl-4-[4-(4-piperazin-1-ylphenyl)-1-piperidyl]pyrazolo[3,4-b]pyridine]: the IC50 amounted to 275 nM.

As to `Cc1cc(N2CCC(c3ccc(N4CCNCC4)cn3)CC2)c2cnn(C)c2n1` [Example 2, 1,6-dimethyl-4-[4-(5-piperazin-1-yl-2-pyridyl)-1-piperidyl]pyrazolo[3,4-b]pyridine], the IC50 is 142 nM.

In the case of `Cc1cc(N2CCC(c3cnc(N4CCNCC4)cn3)CC2)c2cnn(C)c2n1` [Example 3, 1,6-dimethyl-4-[4-(5-piperazin-1-ylpyrazin-2-yl)-1-piperidyl]pyrazolo[3,4-b]pyridine], the IC50 amounted to 124 nM.

Regarding `Cc1cc(N2CCC(c3ncc(N4CCNCC4)cn3)CC2)c2cnn(C)c2n1` [Example 4, 1,6-dimethyl-4-[4-(5-piperazin-1-ylpyrimidin-2-yl)-1-piperidyl]pyrazolo[3,4-b]pyridine], the IC50 stood at 379 nM.

For `Cc1cc(N2CCNCC2)cnc1C1CCN(c2ccnc3c2cnn3C)CC1` [Example 5, 1-methyl-4-[4-(3-methyl-5-piperazin-1-yl-2-pyridyl)-1-piperidyl]pyrazolo[3,4-b]pyridine], the IC50 was found to be 364 nM.

For the compound `Cc1cc(N2CCNCC2)ncc1C1CCN(c2ccnc3c2cnn3C)CC1` [Example 6, 1-methyl-4-[4-(4-methyl-6-piperazin-1-yl-3-pyridyl)-1-piperidyl]pyrazolo[3,4-b]pyridine], the IC50 amounted to 208 nM.

On to `Cc1cc(N2CCC(c3ncc(N4CCNCC4)cc3C)CC2)c2cnn(C)c2n1` [Example 7, 1,6-dimethyl-4-[4-(3-methyl-5-piperazin-1-yl-2-pyridyl)-1-piperidyl]pyrazolo[3,4-b]pyridine], for which the IC50 was 52 nM.

Take `Cc1cc(N2CCC(c3cnc(N4CCNCC4)cc3C)CC2)c2cnn(C)c2n1` [Example 8, 1,6-dimethyl-4-[4-(4-methyl-6-piperazin-1-yl-3-pyridyl)-1-piperidyl]pyrazolo[3,4-b]pyridine]: the IC50 worked out at 195 nM.

Turning to `Cc1cc(N2CCC(c3cc(C)c(N4CCNCC4)cn3)CC2)c2cnn(C)c2n1` [Example 9, 1,6-dimethyl-4-[4-(4-methyl-5-piperazin-1-yl-2-pyridyl)-1-piperidyl]pyrazolo[3,4-b]pyridine], the IC50 worked out at 120 nM.

As to `Cc1cc(N2CCC(c3ccc(N4CCNCC4)nc3C)CC2)c2cnn(C)c2n1` [Example 10, 1,6-dimethyl-4-[4-(2-methyl-6-piperazin-1-yl-3-pyridyl)-1-piperidyl]pyrazolo[3,4-b]pyridine], the IC50 came to 212 nM.

Consider `Cc1cc(N2CCC(c3cnc(N4CCNCC4)nc3C)CC2)c2cnn(C)c2n1` [Example 11, 1,6-dimethyl-4-[4-(4-methyl-2-piperazin-1-yl-pyrimidin-5-yl)-1-piperidyl]pyrazolo[3,4-b]pyridine], for which the IC50 was determined as 104 nM.

On to `CCc1cc(N2CCNCC2)cnc1C1CCN(c2cc(C)nc3c2cnn3C)CC1` [Example 13, 4-[4-(3-ethyl-5-piperazin-1-yl-2-pyridyl)-1-piperidyl]-1,6-dimethyl-pyrazolo[3,4-b]pyridine], for which the IC50 came to 168 nM.

`COc1cc(N2CCNCC2)cnc1C1CCN(c2cc(C)nc3c2cnn3C)CC1` [Example 14, 4-[4-(3-methoxy-5-piperazin-1-yl-2-pyridyl)-1-piperidyl]-1,6-dimethyl-pyrazolo[3,4-b]pyridine]: the IC50 stood at 225 nM.

Regarding `Cc1cc(N2CCC(c3ncc(N4CC[C@@H](N)[C@@H](F)C4)cc3C)CC2)c2cnn(C)c2n1` [Example 15, (3S,4R)-1-[6-[1-(1,6-dimethylpyrazolo[3,4-b]pyridin-4-yl)-4-piperidyl]-5-methyl-3-pyridyl]-3-fluoro-piperidin-4-amine], the IC50 is 130 nM.

As to `COC[C@H]1CN(c2cnc(C3CCN(c4cc(C)nc5c4cnn5C)CC3)c(C)c2)CCN1` [Example 16, 4-[4-[5-[(3R)-3-(methoxymethyl)piperazin-1-yl]-3-methyl-2-pyridyl]-1-piperidyl]-1,6-dimethyl-pyrazolo[3,4-b]pyridine], the IC50 amounted to 143 nM.

`CO[C@H]1CN(c2cnc(C3CCN(c4cc(C)nc5c4cnn5C)CC3)c(C)c2)CC[C@@H]1N` [Example 17, (3S,4S)-1-[6-[1-(1,6-dimethylpyrazolo[3,4-b]pyridin-4-yl)-4-piperidyl]-5-methyl-3-pyridyl]-3-methoxy-piperidin-4-amine]: the IC50 was determined as 73 nM.

For the compound `CO[C@@H]1CN(c2cnc([C@@H]3CCN(c4cc(C)nc5c4cnn5C)C[C@H]3C)c(C)c2)C[C@H]1N` [Example 26, (3R,4R)-1-[6-[(3S,4R)-1-(1,6-dimethylpyrazolo[3,4-b]pyridin-4-yl)-3-methyl-4-piperidyl]-5-methyl-3-pyridyl]-4-methoxy-pyrrolidin-3-amine], the IC50 stood at 109 nM.

As for `Cc1cc(N2CC[C@@H](c3ncc(N4CC5(CNCCO5)C4)cc3C)[C@H](C)C2)c2cnn(C)c2n1` [Example 27, 2-[6-[(3S,4R)-1-(1,6-dimethylpyrazolo[3,4-b]pyridin-4-yl)-3-methyl-4-piperidyl]-5-methyl-3-pyridyl]-5-oxa-2,8-diazaspiro[3.5]nonane], the IC50 amounted to 184 nM.
